Measured values published in patent publication US7977327B2, “Substituted pyrrolidine derivative” (Daiichi Sankyo Company, Limited, priority 2004, dated 2011).
In brackets after ≈: the same amount, converted by molar mass. Counter-ions that a name gives are not always drawn. Like-named read-outs stand apart in the source and are kept apart here. Marks after values point to notes of the source that are not given here.

Key:
[1] = system: E. coli NIHJ; test: Antibacterial activity (MIC), standard method of the Japan Society of Chemotherapy; format: cell-based; details: Escherichia coli
Procedure: (§1) The antimicrobial activities of the compounds of the present invention were determined according to a standard method designated by the Japan Society of Chemotherapy. The results are expressed by MIC (μg/mL) (Table 1). In Table 1, S. aureus 870307 and S. pneumonia J24 are quinolone-resistant bacteria.

[2] = system: E. faevcalis ATCC 19433; test: as above; format: cell-based
Procedure: as §1

[3] = system: K. pneumoniae TYPE I; test: as above; format: cell-based; details: Klebsiella pneumoniae
Procedure: as §1

[4] = system: P. Vulgalis 08601; test: as above; format: cell-based
Procedure: as §1

[5] = system: P. aeruginosa 32104; test: as above; format: cell-based; details: Pseudomonas aeruginosa
Procedure: as §1

[6] = system: P. aeruginosa 32121; test: as above; format: cell-based; details: Pseudomonas aeruginosa
Procedure: as §1

[7] = system: S. aureus 870307; test: as above; format: cell-based; details: Staphylococcus aureus
Procedure: as §1

[8] = system: S. aureus FDA 209P; test: as above; format: cell-based; details: Staphylococcus aureus, FDA209P
Procedure: as §1

[9] = system: S. epidermidis 56500; test: as above; format: cell-based; details: Staphylococcus epidermidis
Procedure: as §1

[10] = system: S. flexneri 2A 5503; test: as above; format: cell-based; details: Shigella flexneri, 2A5503, read-out: MIC
Procedure: as §1

[11] = system: S. maltophilia IID 1275; test: as above; format: cell-based; details: Stenotrophomonas maltophilia, IID1275
Procedure: as §1

[12] = system: S. marcescens 10100; test: as above; format: cell-based; details: Serratia marcescens
Procedure: as §1

[13] = system: S. pneumoniae J24; test: as above; format: cell-based; details: Streptococcus pneumoniae
Procedure: as §1

[14] = system: S. pyogenes G-36; test: as above; format: cell-based; details: Streptococcus pyogenes, G36
Procedure: as §1

[15] = system: Slc:ddY male mice; test: Effect of inducing convulsion, intracisternal administration to mice; format: in vivo; details: i.cist., Probit method
Procedure: The compounds (Compound Nos. 1, 2, and 3) of the present invention and Comparative Compounds A and B were individually dissolved in 5% glucose, to thereby prepare several samples to be tested. Groups of six-week-old Slc:ddY male mice (body weight: 23.9 to 27.4 g), each group consisting of 6 mice, were employed in the test. Each of the above-prepared samples was administered intracisternally to each mouse belonging to each group at concentrations shown in Tables 2 and 3 (5 μL/mouse). During 30 minutes after administration, it was observed whether each mouse suffered convulsion or died in an individual cage. Administration was performed according to the method described by Ueda, et al. (Reference 1).
Reference 1: Ueda H, Amano H, Shiomi H, Takagi H: Comparison of the analgesic effects of various opioid peptides by a newly devised intracisternal injection technique in conscious mice. Eur J Pharmacol. 1979; 56: 265-8.
Significant difference test between groups was performed in terms of incidence of convulsion according to the Fisher's direct probability calculation method (one-sided test, level of significance: P<0.05). On the basis of percentile incidence of convulsion, CD50 (50% concentration for inducing convulsion) and 95% confidence limit were calculated by the Probit method.

[16] = system: Chinese hamster lung (CHL/IU) cells; test: Effect of inducing chromosomal aberration; format: cell-based; details: for Percentile induction of structural aberration (TA %): 24 hours, CHL/IU cells
Procedure: From each sample solution, samples to be tested having a concentration of 1, 3, 10, 30, 50, and 100 μg/mL (as reduced to free form) were prepared. As a negative control, 0.1 mol/L NaOH was employed.
Chinese hamster lung (CHL/IU) cells in logarithmic growth phase were employed. The cells were treated in a culture solution containing each sample to be tested for 24 hours. Subsequently, a chromosome specimen was prepared from the thus-treated cells. The culture solution employed was an Eagle's MEM (product of NISSUI PHARMACEUTICAL CO., LTD.) medium containing 15% fetal bovine serum (15% FBS-MEM).
In each sample concentration, 100 cells during metaphase were observed, to thereby record types and numbers of the chromosomal aberration.

Structure (SMILES): COc1c(N2C[C@@H](N)[C@@H](C)C2)c(F)cc2c(=O)c(C(=O)O)cn([C@@H]3C[C@@H]3F)c12 [Comparative Compound A, 7-[(3S,4S)-3-Amino-4-methylpyrrolidin-1-yl]-6-fluoro-1-[(1R,2S)-2-fluorocyclopropyl]-1,4-dihydro-8-methoxy-4-oxoquinoline-3-carboxylic acid-hydrochloride, reference compound]
- MIC [1]: 0.006 µg/mL
- MIC [2]: 0.1 µg/mL
- MIC [3]: 0.05 µg/mL
- MIC [4]: 0.006 µg/mL
- MIC [5]; 32104: 0.1 µg/mL
- MIC [6]; 32121: 0.05 µg/mL
- MIC [7]; 870307: 0.39 µg/mL
- MIC [8]: 0.012 µg/mL
- MIC [9]; 56500: 0.05 µg/mL
- MIC [10]: 0.006 µg/mL
- MIC [11]: 0.1 µg/mL
- MIC [12]; 10100: 0.05 µg/mL
- MIC ([13]; J24): 0.025 µg/mL
- MIC [14]: 0.05 µg/mL
- CD50 (50% concentration for inducing convulsion), with 95% confidence limit [15]: 12.7 (7.7-24.9)^a) μg/5 μL/mouse

Structure (SMILES): C[C@H]1CN(c2c(F)cc3c(=O)c(C(=O)O)cn4c3c2OC[C@@H]4C)C[C@H]1N [Comparative Compound B, (3S)-10-[(3S,4S)-3-Amino-4-methylpyrrolidin-1-yl]-9-fluoro-2,3-dihydro-3-methyl-7-oxo-7H-pyrido[1,2,3-de][1,4]benzoxazine-6-carboxylic acid-hydrochloride, reference compound]
- MIC [1]: 0.012 µg/mL
- MIC [2]: 0.2 µg/mL
- MIC [3]: 0.05 µg/mL
- MIC [4]: 0.006 µg/mL
- MIC [5]; 32104: 0.1 µg/mL
- MIC [6]; 32121: 0.025 µg/mL
- MIC [7]; 870307: 3.13 µg/mL
- MIC [8]: 0.012 µg/mL
- MIC [9]; 56500: 0.1 µg/mL
- MIC [10]: 0.012 µg/mL
- MIC [11]: 0.39 µg/mL
- MIC [12]; 10100: 0.05 µg/mL
- MIC ([13]; J24): 0.1 µg/mL
- MIC [14]: 0.1 µg/mL
- CD50 (50% concentration for inducing convulsion), with 95% confidence limit [15]: 28.6 (16.8-48.5)^a) μg/5 μL/mouse

Structure (SMILES): Cc1c(N2C[C@@H](N)[C@@H](C)C2)c(F)cc2c(=O)c(C(=O)O)cn(C3CC3)c12 [Comparative Compound C, reference compound]
- MIC ([1]; E. coli NIHJ, read-out: MIC): 0.012 µg/mL (≈ 0.0334 µM)
- MIC ([2]; E. faevcalis ATCC 19433, read-out: MIC): 0.2 µg/mL (≈ 0.556 µM)
- MIC ([3]; K. pneumoniae TYPE I, read-out: MIC): 0.05 µg/mL (≈ 0.139 µM)
- MIC ([4]; P. Vulgalis 08601, read-out: MIC): 0.05 µg/mL (≈ 0.139 µM)
- MIC ([5]; P. aeruginosa 32104, read-out: MIC): 0.39 µg/mL (≈ 1.09 µM)
- MIC ([6]; P. aeruginosa 32121, read-out: MIC): 0.2 µg/mL (≈ 0.556 µM)
- MIC ([7]; S. aureus 870307, quinolone-resistant, read-out: MIC): 1.56 µg/mL (≈ 4.34 µM)
- MIC ([8]; S. aureus FDA 209P, read-out: MIC): 0.025 µg/mL (≈ 0.0696 µM)
- MIC ([9]; S. epidermidis 56500, read-out: MIC): 0.1 µg/mL (≈ 0.278 µM)
- MIC [10]: 0.025 µg/mL (≈ 0.0696 µM)
- MIC ([11]; S. maltophilia IID 1275, read-out: MIC): 0.2 µg/mL (≈ 0.556 µM)
- MIC ([12]; S. marcescens 10100, read-out: MIC): 0.2 µg/mL (≈ 0.556 µM)
- MIC ([13]; S. pneumoniae J24, quinolone-resistant, read-out: MIC): 0.1 µg/mL (≈ 0.278 µM)
- MIC ([14]; S. pyogenes G-36, read-out: MIC): 0.2 µg/mL (≈ 0.556 µM)
- Percentile induction of structural aberration (TA %) ([16]; 1 μg/mL): 3%
- Percentile induction of structural aberration (TA %) ([16]; 3 μg/mL): 4%
- Percentile induction of structural aberration (TA %) ([16]; 10 μg/mL): 5%
- Percentile induction of structural aberration (TA %) ([16]; 30 μg/mL): 72* %
- Percentile induction of structural aberration (TA %) ([16]; 50 μg/mL): 98* %
- Percentile induction of structural aberration (TA %) ([16]; 100 μg/mL): TOX*^2
- Observation of chromosomes (cytotoxicity) ([16]; at a concentration of 100 μg/mL): could not be observed
